According to article PMC11053447, “Human ABC and SLC Transporters: The Culprit Responsible for Unspecific PSMA-617 Uptake?” (Pharmaceuticals, 2024):

Key:
[1] = molecular target: T1, MRP4 (Homo sapiens, UniProt O15439); assay: Vesicular transport inhibition assay (ABC), MRP4-mediated DHEAS transport, HEK293 membrane vesicles; type: in vitro ADME; conditions: for Relative inhibition / ATP dependent transport / Relative ATP dependent transport: DHEAS probe; for ATP dependent transport / Relative ATP dependent transport: mean (n=3) ± SD
T1 construct: host or cells: HEK293 (membrane vesicles)
T1 sequence (O15439 1-1325): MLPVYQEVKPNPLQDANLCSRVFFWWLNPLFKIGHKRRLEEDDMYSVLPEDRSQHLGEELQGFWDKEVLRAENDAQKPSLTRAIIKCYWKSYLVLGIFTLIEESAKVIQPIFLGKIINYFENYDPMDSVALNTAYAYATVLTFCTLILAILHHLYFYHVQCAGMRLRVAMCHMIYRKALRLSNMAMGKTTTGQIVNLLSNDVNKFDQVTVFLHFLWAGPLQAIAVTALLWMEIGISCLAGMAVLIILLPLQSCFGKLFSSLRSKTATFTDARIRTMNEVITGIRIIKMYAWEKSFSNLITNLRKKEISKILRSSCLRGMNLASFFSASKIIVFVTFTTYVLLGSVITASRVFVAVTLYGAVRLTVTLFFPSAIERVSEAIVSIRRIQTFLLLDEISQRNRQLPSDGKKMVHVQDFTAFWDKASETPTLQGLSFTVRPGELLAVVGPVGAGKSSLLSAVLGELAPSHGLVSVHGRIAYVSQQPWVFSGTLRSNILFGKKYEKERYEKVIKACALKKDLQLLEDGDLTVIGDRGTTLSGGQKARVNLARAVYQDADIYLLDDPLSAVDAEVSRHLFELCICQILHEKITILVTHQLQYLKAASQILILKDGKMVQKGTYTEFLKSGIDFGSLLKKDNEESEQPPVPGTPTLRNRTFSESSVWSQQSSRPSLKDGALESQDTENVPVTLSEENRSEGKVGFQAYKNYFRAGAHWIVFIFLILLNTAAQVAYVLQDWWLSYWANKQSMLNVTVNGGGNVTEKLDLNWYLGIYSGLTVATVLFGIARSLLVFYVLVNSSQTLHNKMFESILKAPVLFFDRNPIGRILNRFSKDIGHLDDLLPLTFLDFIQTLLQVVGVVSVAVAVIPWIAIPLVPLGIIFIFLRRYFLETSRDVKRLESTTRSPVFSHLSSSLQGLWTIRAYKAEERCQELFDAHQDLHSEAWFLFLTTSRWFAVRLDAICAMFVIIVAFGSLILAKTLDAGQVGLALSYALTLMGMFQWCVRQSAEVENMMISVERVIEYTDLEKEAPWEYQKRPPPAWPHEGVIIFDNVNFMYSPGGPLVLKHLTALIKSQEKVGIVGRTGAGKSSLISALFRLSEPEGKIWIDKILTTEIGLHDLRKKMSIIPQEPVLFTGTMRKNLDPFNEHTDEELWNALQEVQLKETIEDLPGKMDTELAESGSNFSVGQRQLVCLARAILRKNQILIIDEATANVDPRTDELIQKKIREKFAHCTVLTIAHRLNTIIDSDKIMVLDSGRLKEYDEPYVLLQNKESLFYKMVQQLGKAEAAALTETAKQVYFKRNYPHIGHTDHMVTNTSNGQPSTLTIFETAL

[2] = molecular target: T2, human OAT2v1 (Homo sapiens, UniProt Q9Y694); assay: SLC transporter substrate assay, HEK293-OAT2v1-LV vs control HEK293-Mock-LV cells; type: in vitro ADME; conditions: 20 min
T2 construct: host or cells: HEK293-OAT2v1-LV
T2 sequence (Q9Y694 1-546 isoform Q9Y694-2): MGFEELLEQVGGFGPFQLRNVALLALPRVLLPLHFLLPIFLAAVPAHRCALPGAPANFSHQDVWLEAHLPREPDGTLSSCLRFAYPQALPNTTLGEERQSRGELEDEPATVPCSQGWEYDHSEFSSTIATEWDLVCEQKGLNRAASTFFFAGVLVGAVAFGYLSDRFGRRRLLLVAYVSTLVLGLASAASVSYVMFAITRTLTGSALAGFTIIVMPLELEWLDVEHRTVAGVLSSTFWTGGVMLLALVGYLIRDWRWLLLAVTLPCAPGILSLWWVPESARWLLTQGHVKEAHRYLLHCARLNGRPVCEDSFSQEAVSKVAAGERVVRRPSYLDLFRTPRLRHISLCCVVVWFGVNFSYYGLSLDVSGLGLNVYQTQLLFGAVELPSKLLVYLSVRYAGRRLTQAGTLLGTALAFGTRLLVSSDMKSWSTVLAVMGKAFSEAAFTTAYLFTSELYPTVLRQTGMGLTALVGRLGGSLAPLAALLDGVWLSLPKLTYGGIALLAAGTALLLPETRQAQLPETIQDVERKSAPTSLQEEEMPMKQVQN
Experimental: SI4. Results of transporter substrate assays (SLC)
Human Incubation Positive control substrate/ Control Special Incubation Assay […]
(Cell line) at 37°C [min] [h]
OAT2v1 cGMP (1.5) / Mock-B- Poly-D-lysine
Fold accumulation = UPTTRP
PSMA-617 in SLC transporters.
NA: not analyzed. Test substances were considered as substrates in case of fold accumulation values > 2 combined with inhibition values higher than 50%.
4.4 Organic anion transporter OAT2v1 […]
expressed as mean (n=3) ± SD. Concentrations are nominal.
Table S13: ([α,β-3H]Nal)Lu-PSMA-617-accumulation in OAT2v1 transporter expressing (HEK293-OAT2v1-LV) and […]
Conditions Accumulation (pmol/mg protein)
Compound Nominal In OAT2v1 Fold concentration Minutes transporter In control Active accumulation
[µM] expressing cells transport
Positive control (accumulation in cpm)

[3] = 0.03 µM nominal + Indomethacin 300 µM
[4] = 0.30 µM nominal + Indomethacin 300 µM

[3H]C(c1ccc2ccccc2c1)C([3H])(NC(=O)C1CCC(CNC(=O)CN2CCN(CC(=O)[O-])CCN(CC(=O)[O-])CCN(CC(=O)[O-])CC2)CC1)C(=O)NCCCCC(NC(=O)NC(CCC(=O)O)C(=O)O)C(=O)O.[Lu+3] (stereo not drawn) [([α,β-^3H]Nal)Lu-PSMA-617]
Inhibitor assessment (MRP4) ([1]; 0.30 and 3.00 µM, inhibition >20% defined as significant): no inhibitor
Relative inhibition ([1]; test substance 0.30 µM nominal): -1%
ATP dependent transport ([1]; test substance 0.30 µM nominal): 13761.00 ± 400.40 pmol/mg/min
Relative ATP dependent transport ([1]; test substance 0.30 µM nominal): 100.94 ± 4.07 % of control
Relative inhibition ([1]; test substance 3.00 µM nominal): -6%
ATP dependent transport ([1]; test substance 3.00 µM nominal): 14510.33 ± 290.35 pmol/mg/min
Relative ATP dependent transport ([1]; test substance 3.00 µM nominal): 106.44 ± 3.66 % of control
Accumulation in OAT2v1 transporter expressing cells [2, 3]: 0.06 ± 0.01 pmol/mg protein
Accumulation in control cells [2, 3]: 0.04 ± 0.00 pmol/mg protein
Accumulation, active transport [2, 3]: 0.01 ± 0.01 pmol/mg protein
Fold accumulation [2, 3]: 1.24
Accumulation in OAT2v1 transporter expressing cells ([2]; 0.03 µM nominal, no inhibitor): 0.07 ± 0.01 pmol/mg protein
Accumulation in control cells ([2]; 0.03 µM nominal, no inhibitor): 0.04 ± 0.00 pmol/mg protein
Accumulation, active transport ([2]; 0.03 µM nominal, no inhibitor): 0.03 ± 0.01 pmol/mg protein
Fold accumulation ([2]; 0.03 µM nominal, no inhibitor): 1.77
Accumulation in OAT2v1 transporter expressing cells [2, 4]: 0.66 ± 0.10 pmol/mg protein
Accumulation in control cells [2, 4]: 0.43 ± 0.03 pmol/mg protein
Accumulation, active transport [2, 4]: 0.24 ± 0.10 pmol/mg protein
Fold accumulation [2, 4]: 1.55
Accumulation in OAT2v1 transporter expressing cells ([2]; 0.30 µM nominal, no inhibitor): 0.66 ± 0.04 pmol/mg protein
Accumulation in control cells ([2]; 0.30 µM nominal, no inhibitor): 0.36 ± 0.03 pmol/mg protein
Accumulation, active transport ([2]; 0.30 µM nominal, no inhibitor): 0.30 ± 0.05 pmol/mg protein
Fold accumulation ([2]; 0.30 µM nominal, no inhibitor): 1.83
Max. transporter-specific fold accumulation, without inhibitor ([2]; 0.3 µM): 1.83
Uptake via transporter (OAT2v1) ([2]; absence and presence of indomethacin): not taken up
Max. transporter-specific fold accumulation, with inhibitor ([2]; Indomethacin, 0.3 µM): 1.55
